Literature values as cited in US9180090B2, “Non-sedating antihistamine injection formulations and methods of use thereof” (JDP THERAPEUTICS, INC., priority 2009, dated 2015).

Tests used:
[1] = for Major (potential drug interactions) / Minor (potential drug interactions) / Moderate (potential drug interactions): number of interactions per drugs.com
[2] = oral

Major (potential drug interactions) [1] | Minor (potential drug interactions) [1] | Moderate (potential drug interactions) [1] | Disease state interaction ([1]; per drugs.com) | SMILES | AUC0-24 (single dose) ([2]; single dose) | AUC(single dose)0-inf ([2]; single dose) | AUCss ([2]; steady state)
0 | 5 | 568 | Renal/Liver Disease | O=C(O)COCCN1CCN(C(c2ccccc2)c2ccc(Cl)cc2)CC1 (racemic) [Cetirizine, (±)-[2-[4-[(4-chlorophenyl)phenylmethyl]-1-piperazinyl]ethoxy]acetic acid] | – | – | –
17 | 6 | 622 | – | OCCOCCN1CCN(C(c2ccccc2)c2ccc(Cl)cc2)CC1 (racemic) [Hydroxyzine] | – | – | –
– | – | – | – | Clc1ccc2c(c1)CCc1cccnc1C2=C1CCNCC1 [desloratadine] | AUC0-24 (single dose) = about 34.2 ng · hr/mL | AUC(single dose)0-inf = about 35.6 ng/hr/mL | AUCss = about 56.9 ng · hr/mL
